The results in this text go back to patent US20240209001A1, “HETEROCYCLIC DERIVATIVES AS JANUS KINASE INHIBITORS” (CHIESI FARMACEUTICI S.P. A., priority 2021, published 2024).

Experiment [1] concerns the target JAK 2 (Homo sapiens (Human), UniProt O60674). Description: Biochemical potency on JAK2, TR-FRET LANCE Ultra kinase assay (compounds 1-92). The note with it: ATP at Km, read-out: JAK2 inhibitory activity (pIC50 class) (converted). The protocol: (§1) Biochemical Potency on JAK1, JAK2, JAK3 and Tyk2 Assay Principle The objective of this study was to assess the capability of compounds to inhibit all 4 JAK isoforms activity in a cell-free environment. Assay for JAK 1, JAK 2, JAK 3 and TYK2 were performed by Time-resolved fluorescence resonance energy transfer (TR-FRET) technology. It consists in the interaction of two labelled binding partners detected by the energy transfer from an excited donor to an acceptor dye and measurement of light emission by the acceptor dye. LANCE Ultra kinase assay was used. In presence of JAK 1, JAK 2, JAK 3 and TYK2 kinases and ATP (corresponding to Km), the ULight peptide substrate (LANCE Ulight-JAK-1 ([…]) Peptide, Perkin Elmer, TRF0121) is phosphorylated. It is then captured by Eu-anti-phospho-substrate antibody (LANCE Eu-W1024 Anti-phosphotyrosine (PT66), Perkin Elmer, AD0069), which bring the Eu-chelate donor and ULight acceptor dyes into close proximity. Upon excitation at 320 nm, the Eu-chelate transfers its energy to the ULight dye, resulting in a fluorescent light emission at 665 nm. Compound Testing Serial dilutions of compounds in pure DMSO are prepared from 10 mM DMSO stock solutions. Compounds were tested in 384-well plate for 11 consecutive 5-fold dilutions starting from 20 μM highest concentration (20 μM-[…]). 200 nL of compound were transferred from mother plate to test plate by using Mosquito (TTP labtech). Assay was performed in 384-well Perkin Elmer test plate in 20 μL assay volume (kinase reaction) and 40 μL total volume (stopping reagent and antibody detection reagents). In 10 μL of substrate solution (peptide+ATP) 30/50/20/10 nM of peptide and 20/0.7/0.2/12 μM of ATP were added for JAK 1, JAK 2, JAK 3 and TYK2 respectively. 10 μL of enzyme solution was added to kinase reaction at these concentrations: 0.15/0.083/0.025/0.144 ng/μL of JAK 1, JAK 2, JAK 3 and TYK2 respectively. After shaking and 1.5 h of incubation at r.t., 20 μL of Stop (10 μL EDTA) and Detection mixture (10 μL Europium-anti-phospho antibody, final: 0.5 nM) were added. Reading was performed after 1 h of incubation on a EnVision 2104 reader (Perkin Elmer). Calculation of IC50 data, curves and QC analysis was performed by using Excel tool and GraphPadPrism software, v9. Briefly, individual concentration-effect curves are generated by plotting the logarithm of the tested concentration of tested compounds (X) vs. corresponding percent inhibition values (Y) using least squares (ordinary) fit. Best fit IC50 values are calculated using Log(inhibitor) vs. normalized response-Variable slope equation, where Y=100/(1+10^((Log IC50-X)*HillSlope)). QC criteria parameters (Z', S:B, R2, HillSlope) were checked for every IC50 curve. Calculation of IC50 data, curves and QC analysis were made using Excel tools and GraphPadPrism software. QC criteria parameters: Z'≥0.5, Hill Slope range 0.5 to 5, S:B>2.
Background: TR-FRET usually uses a lanthanide donor and a delayed reading to cut background.

The target in experiment [2] is TYK2 (Homo sapiens (Human), UniProt P29597). Description: Biochemical potency on Tyk2, TR-FRET LANCE Ultra kinase assay (compounds 1-92). The following applies: ATP at Km, read-out: Tyk2 inhibitory activity (pIC50 class) (converted). The protocol: as §1
The target of experiment [3] is JAK 1 (Homo sapiens (Human), UniProt P23458). Briefly: Biochemical potency on JAK1, TR-FRET LANCE Ultra kinase assay (compounds 1-92). The following applies: ATP at Km, read-out: JAK1 inhibitory activity (pIC50 class) (converted). The protocol: as §1
The target in experiment [4] is JAK 3 (Homo sapiens (Human), UniProt P52333). Description: Biochemical potency on JAK3, TR-FRET LANCE Ultra kinase assay (compounds 1-92). The note with it: ATP at Km, read-out: JAK3 inhibitory activity (pIC50 class) (converted). The protocol:
as §1

JAK 3, sequence (P52333 whole entry): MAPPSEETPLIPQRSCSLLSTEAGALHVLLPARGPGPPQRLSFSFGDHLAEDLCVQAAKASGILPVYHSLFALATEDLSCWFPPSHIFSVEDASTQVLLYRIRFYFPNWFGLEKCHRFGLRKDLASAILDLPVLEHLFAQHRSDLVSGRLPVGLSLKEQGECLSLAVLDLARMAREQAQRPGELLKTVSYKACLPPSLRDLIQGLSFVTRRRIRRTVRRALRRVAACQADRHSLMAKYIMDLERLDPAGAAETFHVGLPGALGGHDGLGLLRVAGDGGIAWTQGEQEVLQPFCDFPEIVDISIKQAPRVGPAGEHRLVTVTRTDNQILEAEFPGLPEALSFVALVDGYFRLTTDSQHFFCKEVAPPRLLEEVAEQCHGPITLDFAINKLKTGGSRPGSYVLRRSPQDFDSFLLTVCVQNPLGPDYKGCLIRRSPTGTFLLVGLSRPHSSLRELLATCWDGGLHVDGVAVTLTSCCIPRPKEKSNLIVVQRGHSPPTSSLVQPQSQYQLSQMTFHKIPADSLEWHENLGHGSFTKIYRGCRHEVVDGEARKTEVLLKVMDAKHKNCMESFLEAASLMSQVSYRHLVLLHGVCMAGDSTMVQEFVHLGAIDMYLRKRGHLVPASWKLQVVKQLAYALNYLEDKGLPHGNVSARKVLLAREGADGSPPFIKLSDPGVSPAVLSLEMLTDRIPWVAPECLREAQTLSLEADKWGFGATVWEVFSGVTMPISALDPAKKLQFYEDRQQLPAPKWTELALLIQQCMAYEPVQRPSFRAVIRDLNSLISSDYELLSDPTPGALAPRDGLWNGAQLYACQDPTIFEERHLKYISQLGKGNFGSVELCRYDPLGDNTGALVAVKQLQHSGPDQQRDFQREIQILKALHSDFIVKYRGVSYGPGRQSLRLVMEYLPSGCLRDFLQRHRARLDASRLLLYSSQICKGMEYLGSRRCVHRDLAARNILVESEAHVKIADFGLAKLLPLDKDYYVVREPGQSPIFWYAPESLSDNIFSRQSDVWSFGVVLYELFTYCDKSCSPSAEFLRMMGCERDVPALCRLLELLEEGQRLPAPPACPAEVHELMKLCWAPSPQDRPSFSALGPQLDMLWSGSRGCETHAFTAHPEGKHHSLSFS
TYK2, sequence (P29597 whole entry): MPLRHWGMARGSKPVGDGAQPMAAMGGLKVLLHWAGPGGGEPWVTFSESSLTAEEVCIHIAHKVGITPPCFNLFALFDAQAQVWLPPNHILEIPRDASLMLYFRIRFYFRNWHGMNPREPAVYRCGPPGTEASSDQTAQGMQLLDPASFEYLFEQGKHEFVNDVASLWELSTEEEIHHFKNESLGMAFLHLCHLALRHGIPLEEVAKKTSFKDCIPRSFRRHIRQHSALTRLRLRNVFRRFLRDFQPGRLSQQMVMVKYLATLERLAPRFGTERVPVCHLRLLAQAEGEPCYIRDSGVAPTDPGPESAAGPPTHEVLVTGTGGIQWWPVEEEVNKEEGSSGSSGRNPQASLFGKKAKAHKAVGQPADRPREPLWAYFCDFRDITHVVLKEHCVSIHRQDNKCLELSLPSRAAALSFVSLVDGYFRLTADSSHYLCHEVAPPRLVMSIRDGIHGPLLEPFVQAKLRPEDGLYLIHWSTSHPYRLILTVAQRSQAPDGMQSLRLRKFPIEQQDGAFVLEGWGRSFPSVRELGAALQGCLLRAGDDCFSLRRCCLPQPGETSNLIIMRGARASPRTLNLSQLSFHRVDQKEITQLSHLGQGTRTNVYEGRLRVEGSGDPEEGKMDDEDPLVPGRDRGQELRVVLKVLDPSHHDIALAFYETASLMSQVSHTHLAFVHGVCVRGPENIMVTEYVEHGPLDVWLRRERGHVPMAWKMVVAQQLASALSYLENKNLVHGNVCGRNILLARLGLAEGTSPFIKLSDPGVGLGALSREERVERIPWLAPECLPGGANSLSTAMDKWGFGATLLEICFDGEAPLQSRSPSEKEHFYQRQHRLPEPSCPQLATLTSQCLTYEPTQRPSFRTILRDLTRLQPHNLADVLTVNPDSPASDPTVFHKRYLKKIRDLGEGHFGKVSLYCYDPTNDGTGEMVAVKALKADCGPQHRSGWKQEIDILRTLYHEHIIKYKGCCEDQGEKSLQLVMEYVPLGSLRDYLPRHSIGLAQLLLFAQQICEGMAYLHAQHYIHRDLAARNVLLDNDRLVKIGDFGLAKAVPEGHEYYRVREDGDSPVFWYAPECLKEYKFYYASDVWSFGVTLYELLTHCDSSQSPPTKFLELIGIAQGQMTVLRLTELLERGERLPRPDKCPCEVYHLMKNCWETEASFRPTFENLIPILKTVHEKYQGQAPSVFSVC
JAK 2, sequence (O60674 whole entry, canonical isoform): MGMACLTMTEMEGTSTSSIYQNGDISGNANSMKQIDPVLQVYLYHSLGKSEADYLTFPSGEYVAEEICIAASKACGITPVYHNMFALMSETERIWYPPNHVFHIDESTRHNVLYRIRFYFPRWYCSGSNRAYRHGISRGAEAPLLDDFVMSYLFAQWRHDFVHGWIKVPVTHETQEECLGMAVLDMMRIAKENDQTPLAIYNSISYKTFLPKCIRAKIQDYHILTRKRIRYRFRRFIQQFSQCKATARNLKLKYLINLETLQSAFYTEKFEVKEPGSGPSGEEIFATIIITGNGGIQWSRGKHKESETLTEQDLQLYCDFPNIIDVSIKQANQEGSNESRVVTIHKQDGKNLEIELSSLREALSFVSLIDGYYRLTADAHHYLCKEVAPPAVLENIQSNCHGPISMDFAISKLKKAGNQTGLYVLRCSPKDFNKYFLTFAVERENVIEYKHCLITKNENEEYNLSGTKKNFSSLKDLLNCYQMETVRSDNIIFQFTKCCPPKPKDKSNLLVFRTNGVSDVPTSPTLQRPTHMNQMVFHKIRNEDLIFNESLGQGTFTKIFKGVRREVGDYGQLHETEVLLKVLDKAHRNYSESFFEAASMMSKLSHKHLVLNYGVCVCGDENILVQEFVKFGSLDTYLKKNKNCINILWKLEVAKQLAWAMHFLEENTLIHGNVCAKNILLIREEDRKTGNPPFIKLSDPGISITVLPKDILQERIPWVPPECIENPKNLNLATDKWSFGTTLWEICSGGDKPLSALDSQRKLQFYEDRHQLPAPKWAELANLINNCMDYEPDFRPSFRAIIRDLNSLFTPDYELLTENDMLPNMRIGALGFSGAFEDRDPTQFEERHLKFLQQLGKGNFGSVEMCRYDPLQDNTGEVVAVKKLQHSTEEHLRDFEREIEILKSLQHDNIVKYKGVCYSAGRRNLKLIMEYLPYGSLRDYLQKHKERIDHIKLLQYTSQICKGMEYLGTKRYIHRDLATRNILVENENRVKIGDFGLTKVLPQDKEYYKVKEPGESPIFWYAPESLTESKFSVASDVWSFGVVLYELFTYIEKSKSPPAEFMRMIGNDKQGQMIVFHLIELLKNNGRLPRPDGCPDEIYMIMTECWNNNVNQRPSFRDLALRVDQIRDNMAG
JAK 1, sequence (P23458 whole entry): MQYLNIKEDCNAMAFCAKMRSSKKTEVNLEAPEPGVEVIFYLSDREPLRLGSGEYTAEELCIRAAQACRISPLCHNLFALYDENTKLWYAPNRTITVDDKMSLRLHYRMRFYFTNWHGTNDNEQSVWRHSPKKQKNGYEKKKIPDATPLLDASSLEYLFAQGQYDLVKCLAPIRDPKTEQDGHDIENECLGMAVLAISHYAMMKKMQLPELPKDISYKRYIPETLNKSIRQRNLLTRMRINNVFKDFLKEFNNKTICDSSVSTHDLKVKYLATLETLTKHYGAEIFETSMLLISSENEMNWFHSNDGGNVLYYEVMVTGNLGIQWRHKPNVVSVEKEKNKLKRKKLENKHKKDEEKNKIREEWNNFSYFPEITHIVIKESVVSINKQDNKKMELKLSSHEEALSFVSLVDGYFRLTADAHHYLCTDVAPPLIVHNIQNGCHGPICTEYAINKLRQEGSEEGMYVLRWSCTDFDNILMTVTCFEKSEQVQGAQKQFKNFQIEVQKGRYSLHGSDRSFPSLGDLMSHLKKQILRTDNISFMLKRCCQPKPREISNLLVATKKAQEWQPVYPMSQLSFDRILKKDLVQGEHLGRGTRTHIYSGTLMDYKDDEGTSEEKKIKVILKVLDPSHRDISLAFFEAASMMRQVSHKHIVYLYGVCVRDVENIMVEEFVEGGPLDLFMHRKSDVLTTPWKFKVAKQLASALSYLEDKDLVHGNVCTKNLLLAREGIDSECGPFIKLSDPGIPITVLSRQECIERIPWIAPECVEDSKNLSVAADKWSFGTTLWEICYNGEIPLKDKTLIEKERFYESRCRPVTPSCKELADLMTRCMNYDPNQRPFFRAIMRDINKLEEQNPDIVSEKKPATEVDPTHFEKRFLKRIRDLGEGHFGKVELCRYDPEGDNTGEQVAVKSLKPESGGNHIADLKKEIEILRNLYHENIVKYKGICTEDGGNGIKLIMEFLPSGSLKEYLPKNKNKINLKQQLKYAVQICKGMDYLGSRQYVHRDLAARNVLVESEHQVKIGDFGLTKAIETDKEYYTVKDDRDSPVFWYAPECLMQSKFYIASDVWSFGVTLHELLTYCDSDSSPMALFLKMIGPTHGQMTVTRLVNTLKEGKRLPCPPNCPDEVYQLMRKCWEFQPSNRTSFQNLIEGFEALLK

Take `COc1cc(NS(C)(=O)=O)ccc1-n1nc(C)c2cnc(Nc3ncc[nH]c3=O)cc21` [Example 85, N-(3-methoxy-4-(3-methyl-6-((3-oxo-3,4-dihydropyrazin-2-yl)amino)-1H-pyrazolo[4,3-c]pyridin-1-yl)phenyl)methanesulfonamide]: the IC50 in experiment [1], in experiment [2], in experiment [3] and in experiment [4] was ≤ 5.01 nM each time.

On to `COc1cc(NS(=O)(=O)CCC(N)=O)ccc1-n1nc(C)c2cnc(-c3cnn4cccnc34)cc21` [Example 13, 3-(N-(3-methoxy-4-(3-methyl-6-(pyrazolo[1,5-a]pyrimidin-3-yl)-1H-pyrazolo[4,3-c]pyridin-1-yl)phenyl)sulfamoyl)propanamide], for which the IC50 in experiment [1] is ≤ 5.01 nM; in experiment [2], 5.01 to 50.1 nM; in experiment [3], ≤ 5.01 nM; in experiment [4], ≤ 5.01 nM.

Turning to `COc1cc(NS(C)(=O)=O)ccc1-n1nc(NCCN2CCOCC2)c2cnc(-c3cnc4cccnn34)cc21` [Example 76, N-(4-(6-(imidazo[1,2-b]pyridazin-3-yl)-3-((2-morpholinoethyl)amino)-1H-pyrazolo[4,3-c]pyridin-1-yl)-3-methoxyphenyl)methanesulfonamide], the IC50 in experiment [1] was ≤ 5.01 nM; in experiment [2] it was 5.01 to 50.1 nM; in experiment [3], ≤ 5.01 nM; in experiment [4] it was ≤ 5.01 nM.

Consider `COc1cc(NS(=O)(=O)CC(F)F)ccc1-n1nc(C)c2cnc(-c3cnn4cccnc34)cc21` [Example 73, 2,2-difluoro-N-(3-methoxy-4-(3-methyl-6-(pyrazolo[1,5-a]pyrimidin-3-yl)-1H-pyrazolo[4,3-c]pyridin-1-yl)phenyl)ethane-1-sulfonamide], for which the IC50 is 5.01 to 50.1 nM in experiment [1], 5.01 to 50.1 nM in experiment [2], ≤ 5.01 nM in experiment [3] and 5.01 to 50.1 nM in experiment [4].

With `CCCS(=O)(=O)Nc1ccc(-n2nc(NC)c3cnc(Nc4ncc[nH]c4=O)cc32)c(OC)c1` [Example 91, N-(3-methoxy-4-(3-(methylamino)-6-((3-oxo-3,4-dihydropyrazin-2-yl)amino)-1H-pyrazolo[4,3-c]pyridin-1-yl)phenyl)propane-1-sulfonamide], the IC50 in experiment [1] was ≤ 5.01 nM; in experiment [2], 5.01 to 50.1 nM; in experiment [3], ≤ 5.01 nM; in experiment [4], ≤ 5.01 nM.

In the case of `COc1cc(CNS(C)(=O)=O)ccc1-n1nc(NCCN2CCOCC2)c2cnc(-c3cnn4cccnc34)cc21` [Example 53, N-(3-methoxy-4-(3-((2-morpholinoethyl)amino)-6-(pyrazolo[1,5-a]pyrimidin-3-yl)-1H-pyrazolo[4,3-c]pyridin-1-yl)benzyl)methanesulfonamide], the IC50 is ≤ 5.01 nM in experiment [1], 5.01 to 50.1 nM in experiment [2], ≤ 5.01 nM in experiment [3] and ≤ 5.01 nM in experiment [4].

For the molecule `COc1cc(NS(=O)(=O)C2COC2)ccc1-n1nc(C)c2cnc(-c3cnn4cccnc34)cc21` [Example 8, N-(3-methoxy-4-(3-methyl-6-(pyrazolo[1,5-a]pyrimidin-3-yl)-1H-pyrazolo[4,3-c]pyridin-1-yl)phenyl)oxetane-3-sulfonamide], the IC50 in experiment [1] was ≤ 5.01 nM; in experiment [2], 5.01 to 50.1 nM; in experiment [3], ≤ 5.01 nM; in experiment [4], ≤ 5.01 nM.

Consider `COc1cc(NS(C)(=O)=O)ccc1-n1nc(NCCO)c2cnc(-c3cnn4cccnc34)cc21` [Example 26, N-(4-(3-((2-hydroxyethyl)amino)-6-(pyrazolo[1,5-a]pyrimidin-3-yl)-1H-pyrazolo[4,3-c]pyridin-1-yl)-3-methoxyphenyl)methanesulfonamide], for which the IC50 is ≤ 5.01 nM in experiment [1], 5.01 to 50.1 nM in experiment [2], ≤ 5.01 nM in experiment [3] and ≤ 5.01 nM in experiment [4].

For `CNCC(=O)Nc1nn(-c2ccc(NS(C)(=O)=O)cc2OC)c2cc(-c3cnn4cccnc34)ncc12` [Example 80, N-(1-(2-methoxy-4-(methylsulfonamido)phenyl)-6-(pyrazolo[1,5-a]pyrimidin-3-yl)-1H-pyrazolo[4,3-c]pyridin-3-yl)-2-(methylamino)acetamide], the IC50 was ≤ 5.01 nM in experiment [1], 5.01 to 50.1 nM in experiment [2], ≤ 5.01 nM in experiment [3] and ≤ 5.01 nM in experiment [4].

Turning to `COc1cc(NS(C)(=O)=O)ccc1-n1nc(NCCN2CCCCC2)c2cnc(-c3cnn4cccnc34)cc21` [Example 37, N-(3-methoxy-4-(3-((2-(piperidin-1-yl)ethyl)amino)-6-(pyrazolo[1,5-a]pyrimidin-3-yl)-1H-pyrazolo[4,3-c]pyridin-1-yl)phenyl)methanesulfonamide], the IC50 in experiment [1] is ≤ 5.01 nM; in experiment [2], 5.01 to 50.1 nM; in experiment [3] it was ≤ 5.01 nM; in experiment [4] it was ≤ 5.01 nM.

As to `CCCS(=O)(=O)Nc1ccc(-n2nc(NCCN3CCCCC3)c3cnc(Nc4ncc[nH]c4=O)cc32)c(OC)c1` [Example 88, N-(3-methoxy-4-(6-((3-oxo-3,4-dihydropyrazin-2-yl)amino)-3-((2-(piperidin-1-yl)ethyl)amino)-1H-pyrazolo[4,3-c]pyridin-1-yl)phenyl)propane-1-sulfonamide], the IC50 in experiment [1] was ≤ 5.01 nM; in experiment [2], 5.01 to 50.1 nM; in experiment [3], ≤ 5.01 nM; in experiment [4], ≤ 5.01 nM.

For `CCCS(=O)(=O)Nc1ccc(-n2nc(NC(=O)CCN3CCN(C)CC3)c3cnc(-c4cnn5cccnc45)cc32)c(OC)c1` [Example 82, N-(1-(2-methoxy-4-(propylsulfonamido)phenyl)-6-(pyrazolo[1,5-a]pyrimidin-3-yl)-1H-pyrazolo[4,3-c]pyridin-3-yl)-3-(4-methylpiperazin-1-yl)propanamide], the IC50 in experiment [1], in experiment [2], in experiment [3] and in experiment [4] was 5.01 to 50.1 nM in each case.

Consider `COc1cc(CNS(C)(=O)=O)c(Cl)cc1-n1nc(NCCN2CCOCC2)c2cnc(-c3cnn4cccnc34)cc21` [Example 58, N-(2-chloro-5-methoxy-4-(3-((2-morpholinoethyl)amino)-6-(pyrazolo[1,5-a]pyrimidin-3-yl)-1H-pyrazolo[4,3-c]pyridin-1-yl)benzyl)methanesulfonamide], for which the IC50 is 5.01 to 50.1 nM in experiment [1], 5.01 to 50.1 nM in experiment [2], ≤ 5.01 nM in experiment [3] and 5.01 to 50.1 nM in experiment [4].

`COc1cc(CNS(=O)(=O)CC#N)ccc1-n1nc(C)c2cnc(-c3cnn4cccnc34)cc21` [Example 68, 1-cyano-N-(3-methoxy-4-(3-methyl-6-(pyrazolo[1,5-a]pyrimidin-3-yl)-1H-pyrazolo[4,3-c]pyridin-1-yl)benzyl)methanesulfonamide]: the IC50 in experiment [1] is ≤ 5.01 nM; in experiment [2], 5.01 to 50.1 nM; in experiment [3] it was ≤ 5.01 nM; in experiment [4] it was ≤ 5.01 nM.

Consider `COc1cc(CNC(C)=O)ccc1-n1nc(C)c2cnc(-c3cnn4cccnc34)cc21` [Example 70, N-(3-methoxy-4-(3-methyl-6-(pyrazolo[1,5-a]pyrimidin-3-yl)-1H-pyrazolo[4,3-c]pyridin-1-yl)benzyl)acetamide], for which the IC50 in experiment [1], in experiment [2], in experiment [3] and in experiment [4] was > 50.1 nM in each case.

As for `COc1cc(CNC(=O)Nc2ccccc2)ccc1-n1nc(C)c2cnc(-c3cnn4cccnc34)cc21` [Example 72, 1-(3-methoxy-4-(3-methyl-6-(pyrazolo[1,5-a]pyrimidin-3-yl)-1H-pyrazolo[4,3-c]pyridin-1-yl)benzyl)-3-phenylurea], the IC50 in experiment [1] was 5.01 to 50.1 nM; in experiment [2], > 50.1 nM; in experiment [3], > 50.1 nM; in experiment [4], 5.01 to 50.1 nM.
